Test results as given in patent publication EP4620959A1, “CYCLIC COMPOUNDS USED AS MULTI-TARGET KINASE INHIBITORS AND PREPARATION METHOD THEREFOR” (Shanghai Institute of Organic Chemistry, Chinese Academy of …, priority 2022, dated 2024).
Where two headings read alike, the source gives them in different places.

Tests used:
FGFR4 V550L = FGFR4 V550L (Homo sapiens, UniProt P22455, V550L); test: Kinase activity inhibition assay (ADP-Glo), FGFR4 V550L; assay type: biochemical; details: ATP 20 µM
Experimental: (§1) The kinase activity inhibition assay was performed by ICE Bioscience (Beijing) using ADP-Glo and HTRF methods.
(§2) Table 1.1-1 ADP-Glo Buffer
(§3) Table 1.2-1 ADP-Glo Kinase and Substrate Formulation
(§4) SD is the standard error, and AVE is the average value. Table 2-1 LRRK2 Activity Inhibition Test Results

DYRK2 = DYRK2 (Homo sapiens, UniProt Q92630); test: Kinase activity inhibition assay (ADP-Glo), DYRK2; assay type: biochemical; details: ATP 5 µM
Experimental: as §1, §2, §3, §4

FGFR1 = FGFR1 (Homo sapiens, UniProt P11362); test: Kinase activity inhibition assay (HTRF), FGFR1; assay type: biochemical; details: ATP 40 µM
Experimental: as §1
(§5) Table 1.2-2 HTRF Kinase and Substrate Formulation
(§6) • 1) 2×ATP/substrate solution and 2×kinase/metal ion solution were prepared using kinase reaction buffer; • 2) 20 nL (ADP-GLo) or 40 nL (HTRF) of compound dilution was transferred using Echo 655 onto a 384-well assay plate; after centrifugation, 2 µL of 2×kinase and metal ion solution were added to the 384-well assay plate, centrifuged at 1000 rpm for 1 min, and incubated at 25°C for 10 min; • 3) 2 µL of 2×substrate and ATP solution were added to the 384-well assay plate, centrifuged at 1000 rpm for 1 min, and incubated at 25°C for 60 min. • 4) 4 µL of ADP-Glo was transferred to the 384-well assay plate, entrifuged at 1000 rpm for 1 min, and incubated at 25°C for 40 min. • 5) 8 µL of detection solution was transferred to the 384-well assay plate, centrifuged at 1000 rpm for 1 min, and incubated at 25°C for 40 min. • 6) Luminescence signals was read using a multifunctional microplate reader.
as §4

FGFR2 = FGFR2 (Homo sapiens, UniProt P21802); test: Kinase activity inhibition assay (HTRF), FGFR2; assay type: biochemical; details: ATP 20 µM
Experimental: as §1, §5, §6, §4

FGFR3 = FGFR3 (Homo sapiens, UniProt P22607); test: Kinase activity inhibition assay (HTRF), FGFR3; assay type: biochemical; details: ATP 50 µM
Experimental: as §1, §5, §6, §4

FGFR4 = FGFR4 (Homo sapiens, UniProt P22455); test: Kinase activity inhibition assay (HTRF), FGFR4; assay type: biochemical; details: ATP 50 µM
Experimental: as §1, §5, §6, §4

FGFR2 V564I = FGFR2 V564I (Homo sapiens, UniProt P21802, V564I); test: Kinase activity inhibition assay (HTRF), FGFR2 V564I; assay type: biochemical; details: ATP 20 µM
Experimental: as §1, §5, §6, §4

FGFR3 K650M = FGFR3 K650M (Homo sapiens, UniProt P22607, K650M); test: Kinase activity inhibition assay (HTRF), FGFR3 K650M; assay type: biochemical; details: ATP 12 µM
Experimental: as §1, §5, §4

FGFR3 V555L = FGFR3 V555L (Homo sapiens, UniProt P22607, V555L); test: Kinase activity inhibition assay (HTRF), FGFR3 V555L; assay type: biochemical; details: ATP 20 µM
Experimental: as §1, §5, §6, §4

RET V804L = RET V804L (Homo sapiens, UniProt P07949, V804L); test: Kinase activity inhibition assay (HTRF), RET V804L; assay type: biochemical; details: ATP 5 µM
Experimental: as §1, §5, §6, §4

FGFR4 N535K = FGFR4 N535K (Homo sapiens, UniProt P22455, N535K); test: Kinase activity inhibition assay (HTRF), FGFR4 N535K; assay type: biochemical; details: ATP 100 µM
Experimental: as §1, §5, §6, §4

TYRO3 = TYRO3 (Homo sapiens, UniProt Q06418); test: Kinase activity inhibition assay (HTRF), TYRO3; assay type: biochemical; details: ATP 0.5 µM
Experimental: as §1, §5, §4

FGFR1 V561M = FGFR1 V561M (Homo sapiens, UniProt P11362, V561M); test: Kinase activity inhibition assay (HTRF), FGFR1 V561M; assay type: biochemical; details: ATP 20 µM
Experimental: as §1, §5, §6, §4

FGFR4 V550M = FGFR4 V550M (Homo sapiens, UniProt P22455, V550M); test: Kinase activity inhibition assay (HTRF), FGFR4 V550M; assay type: biochemical; details: ATP 60 µM
Experimental: as §1, §5, §4

FGFR2 V564F = FGFR2 V564F (Homo sapiens, UniProt P21802, V564F); test: Kinase activity inhibition assay (HTRF), FGFR2 V564F; assay type: biochemical; details: ATP 15 µM
Experimental: as §1, §5, §6, §4

FGFR3 V555M = FGFR3 V555M (Homo sapiens, UniProt P22607, V555M); test: Kinase activity inhibition assay (HTRF), FGFR3 V555M; assay type: biochemical; details: ATP 20 µM
Experimental: as §1, §5, §6, §4

FGFR2 N549H = FGFR2 N549H (Homo sapiens, UniProt P21802, N549H); test: Kinase activity inhibition assay (HTRF), FGFR2 N549H; assay type: biochemical; details: ATP 9 µM
Experimental: as §1, §5, §4

FLT1 = FLT1 (Homo sapiens, UniProt P17948); test: Kinase activity inhibition assay (ADP-Glo), FLT1; assay type: biochemical; details: ATP 50 µM
Experimental: as §1, §2, §3, §6, §4

FLT4 = FLT4 (Homo sapiens, UniProt P35916); test: Kinase activity inhibition assay (HTRF), FLT4; assay type: biochemical; details: ATP 32 µM
Experimental: as §1, §5, §6, §4

KDR = KDR (Homo sapiens, UniProt P35968); test: Kinase activity inhibition assay (HTRF), KDR; assay type: biochemical; details: ATP 4 µM
Experimental: as §1, §5, §4

FLT3 = FLT3 (Homo sapiens, UniProt P36888); test: Kinase activity inhibition assay (HTRF), FLT3; assay type: biochemical; details: ATP 2 µM
Experimental: as §1, §5, §6, §4

[1] = Oral pharmacokinetic study in rats; details: rat, in vivo, male SD rats, oral gavage, 1% MC; for AUC(0-t) at 8 h: read-out: AUC0-8
Experimental: Drug preparation: 1% MC was added to the compound, ground, and shaken uniformly. Samples were collected at 5 min, 15 min, 30 min, 1 h, 2 h, 4 h, and 8 h post-dose, followed by analysis using liquid chromatography-tandem mass spectrometry (LC-MS/MS). Table 3 PK Data of Selected Compounds

PDGFRα = PDGFRα (Homo sapiens, UniProt P16234); test: Kinase activity inhibition assay (HTRF), PDGFRα; assay type: biochemical; details: ATP 0.5 µM
Experimental: as §1, §5, §6, §4

Chain of FGFR3 V555L (P22607 23-806 V555L): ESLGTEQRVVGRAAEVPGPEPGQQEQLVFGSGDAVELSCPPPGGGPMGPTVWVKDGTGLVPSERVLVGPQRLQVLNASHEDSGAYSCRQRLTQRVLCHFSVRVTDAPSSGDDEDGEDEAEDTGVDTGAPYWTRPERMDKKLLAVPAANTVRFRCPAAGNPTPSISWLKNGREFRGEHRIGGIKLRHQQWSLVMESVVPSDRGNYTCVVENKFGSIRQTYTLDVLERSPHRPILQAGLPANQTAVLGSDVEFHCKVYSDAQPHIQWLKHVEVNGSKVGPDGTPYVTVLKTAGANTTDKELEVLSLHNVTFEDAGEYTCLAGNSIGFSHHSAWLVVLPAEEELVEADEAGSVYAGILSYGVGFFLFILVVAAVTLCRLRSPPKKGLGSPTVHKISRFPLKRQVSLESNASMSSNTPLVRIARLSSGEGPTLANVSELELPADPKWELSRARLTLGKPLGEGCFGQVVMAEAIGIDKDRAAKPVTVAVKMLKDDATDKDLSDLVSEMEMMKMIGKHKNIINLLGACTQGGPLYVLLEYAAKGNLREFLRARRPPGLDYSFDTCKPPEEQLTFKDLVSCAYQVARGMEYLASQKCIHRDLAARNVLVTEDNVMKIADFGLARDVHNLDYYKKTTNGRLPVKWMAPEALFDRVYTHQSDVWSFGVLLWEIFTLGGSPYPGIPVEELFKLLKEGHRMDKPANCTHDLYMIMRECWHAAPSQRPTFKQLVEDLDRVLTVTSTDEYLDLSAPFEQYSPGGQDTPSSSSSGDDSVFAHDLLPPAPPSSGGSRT
Chain of FGFR4 (P22455 22-802): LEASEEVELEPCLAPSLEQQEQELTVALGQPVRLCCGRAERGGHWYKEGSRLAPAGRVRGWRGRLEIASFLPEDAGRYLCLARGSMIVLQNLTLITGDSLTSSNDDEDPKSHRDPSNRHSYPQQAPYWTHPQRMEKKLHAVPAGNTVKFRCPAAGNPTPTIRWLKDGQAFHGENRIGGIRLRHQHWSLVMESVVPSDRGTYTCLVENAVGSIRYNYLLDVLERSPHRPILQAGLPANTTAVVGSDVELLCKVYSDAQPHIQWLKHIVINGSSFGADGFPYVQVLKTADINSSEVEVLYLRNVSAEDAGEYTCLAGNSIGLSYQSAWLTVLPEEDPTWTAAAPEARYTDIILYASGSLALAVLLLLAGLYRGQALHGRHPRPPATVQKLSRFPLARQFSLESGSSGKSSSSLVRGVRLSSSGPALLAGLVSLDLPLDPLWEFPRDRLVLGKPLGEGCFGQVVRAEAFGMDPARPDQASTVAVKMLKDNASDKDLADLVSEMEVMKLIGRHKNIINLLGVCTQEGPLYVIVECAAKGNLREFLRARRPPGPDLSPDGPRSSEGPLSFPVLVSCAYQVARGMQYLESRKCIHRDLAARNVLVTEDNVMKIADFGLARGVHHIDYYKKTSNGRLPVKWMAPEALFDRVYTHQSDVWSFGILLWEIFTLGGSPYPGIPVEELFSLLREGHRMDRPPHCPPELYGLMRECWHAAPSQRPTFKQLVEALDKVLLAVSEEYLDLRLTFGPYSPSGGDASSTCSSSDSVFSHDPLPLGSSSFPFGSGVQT
Chain of FGFR2 (P21802 22-821): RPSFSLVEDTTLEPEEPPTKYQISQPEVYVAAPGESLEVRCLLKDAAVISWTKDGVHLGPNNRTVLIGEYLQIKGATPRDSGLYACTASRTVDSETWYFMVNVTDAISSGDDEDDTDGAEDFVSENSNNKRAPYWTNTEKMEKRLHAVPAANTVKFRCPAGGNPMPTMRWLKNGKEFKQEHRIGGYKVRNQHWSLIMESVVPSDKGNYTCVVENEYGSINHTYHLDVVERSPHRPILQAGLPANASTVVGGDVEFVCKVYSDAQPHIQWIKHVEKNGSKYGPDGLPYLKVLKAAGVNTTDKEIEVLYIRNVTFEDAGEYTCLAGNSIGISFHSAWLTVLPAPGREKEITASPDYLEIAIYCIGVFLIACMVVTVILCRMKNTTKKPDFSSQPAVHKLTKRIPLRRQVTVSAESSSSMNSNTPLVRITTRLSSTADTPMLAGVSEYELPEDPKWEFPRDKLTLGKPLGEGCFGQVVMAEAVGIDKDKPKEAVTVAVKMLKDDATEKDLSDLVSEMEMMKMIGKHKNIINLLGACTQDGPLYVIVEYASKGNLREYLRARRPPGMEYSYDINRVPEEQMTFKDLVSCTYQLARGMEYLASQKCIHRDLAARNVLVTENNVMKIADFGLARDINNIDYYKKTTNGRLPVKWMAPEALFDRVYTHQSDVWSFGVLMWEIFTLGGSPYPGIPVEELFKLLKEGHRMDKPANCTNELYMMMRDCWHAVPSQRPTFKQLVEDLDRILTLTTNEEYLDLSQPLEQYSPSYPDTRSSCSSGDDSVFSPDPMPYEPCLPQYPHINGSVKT
Chain of RET V804L (P07949 29-1114 V804L): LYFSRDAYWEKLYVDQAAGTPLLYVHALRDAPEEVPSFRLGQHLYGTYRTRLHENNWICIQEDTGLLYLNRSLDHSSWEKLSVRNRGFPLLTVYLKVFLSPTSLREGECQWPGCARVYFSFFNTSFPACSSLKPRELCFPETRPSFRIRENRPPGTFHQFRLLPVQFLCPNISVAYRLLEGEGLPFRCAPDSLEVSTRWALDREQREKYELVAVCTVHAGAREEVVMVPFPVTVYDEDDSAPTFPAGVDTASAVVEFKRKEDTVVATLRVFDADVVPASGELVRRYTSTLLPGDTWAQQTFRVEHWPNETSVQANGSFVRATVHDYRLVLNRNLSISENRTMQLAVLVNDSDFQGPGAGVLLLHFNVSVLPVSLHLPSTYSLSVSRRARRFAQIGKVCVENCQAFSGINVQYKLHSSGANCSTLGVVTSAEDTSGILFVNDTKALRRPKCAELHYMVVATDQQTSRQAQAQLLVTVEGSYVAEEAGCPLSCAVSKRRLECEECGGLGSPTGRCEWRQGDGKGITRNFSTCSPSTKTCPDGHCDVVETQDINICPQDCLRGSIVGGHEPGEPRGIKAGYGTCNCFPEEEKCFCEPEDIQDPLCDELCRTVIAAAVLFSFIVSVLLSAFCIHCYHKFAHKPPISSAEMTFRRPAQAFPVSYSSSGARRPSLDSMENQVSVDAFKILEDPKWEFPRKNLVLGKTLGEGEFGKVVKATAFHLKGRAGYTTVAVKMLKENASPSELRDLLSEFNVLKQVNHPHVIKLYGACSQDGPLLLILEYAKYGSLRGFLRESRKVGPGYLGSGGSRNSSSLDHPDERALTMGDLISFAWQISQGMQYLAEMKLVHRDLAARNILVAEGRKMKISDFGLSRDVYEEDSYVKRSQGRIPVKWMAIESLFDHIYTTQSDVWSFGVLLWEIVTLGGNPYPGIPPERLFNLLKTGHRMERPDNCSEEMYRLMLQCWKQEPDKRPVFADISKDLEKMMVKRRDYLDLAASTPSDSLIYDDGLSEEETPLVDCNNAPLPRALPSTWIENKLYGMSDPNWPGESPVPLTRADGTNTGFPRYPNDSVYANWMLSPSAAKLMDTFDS
Chain of FGFR4 V550M (P22455 22-802 V550M): as the sequence (P22455 22-802) above, with V529M counted along it
Chain of FGFR3 (P22607 23-806): as the sequence (P22607 23-806 V555L) above, with L533V counted along it
Chain of KDR (P35968 20-1356): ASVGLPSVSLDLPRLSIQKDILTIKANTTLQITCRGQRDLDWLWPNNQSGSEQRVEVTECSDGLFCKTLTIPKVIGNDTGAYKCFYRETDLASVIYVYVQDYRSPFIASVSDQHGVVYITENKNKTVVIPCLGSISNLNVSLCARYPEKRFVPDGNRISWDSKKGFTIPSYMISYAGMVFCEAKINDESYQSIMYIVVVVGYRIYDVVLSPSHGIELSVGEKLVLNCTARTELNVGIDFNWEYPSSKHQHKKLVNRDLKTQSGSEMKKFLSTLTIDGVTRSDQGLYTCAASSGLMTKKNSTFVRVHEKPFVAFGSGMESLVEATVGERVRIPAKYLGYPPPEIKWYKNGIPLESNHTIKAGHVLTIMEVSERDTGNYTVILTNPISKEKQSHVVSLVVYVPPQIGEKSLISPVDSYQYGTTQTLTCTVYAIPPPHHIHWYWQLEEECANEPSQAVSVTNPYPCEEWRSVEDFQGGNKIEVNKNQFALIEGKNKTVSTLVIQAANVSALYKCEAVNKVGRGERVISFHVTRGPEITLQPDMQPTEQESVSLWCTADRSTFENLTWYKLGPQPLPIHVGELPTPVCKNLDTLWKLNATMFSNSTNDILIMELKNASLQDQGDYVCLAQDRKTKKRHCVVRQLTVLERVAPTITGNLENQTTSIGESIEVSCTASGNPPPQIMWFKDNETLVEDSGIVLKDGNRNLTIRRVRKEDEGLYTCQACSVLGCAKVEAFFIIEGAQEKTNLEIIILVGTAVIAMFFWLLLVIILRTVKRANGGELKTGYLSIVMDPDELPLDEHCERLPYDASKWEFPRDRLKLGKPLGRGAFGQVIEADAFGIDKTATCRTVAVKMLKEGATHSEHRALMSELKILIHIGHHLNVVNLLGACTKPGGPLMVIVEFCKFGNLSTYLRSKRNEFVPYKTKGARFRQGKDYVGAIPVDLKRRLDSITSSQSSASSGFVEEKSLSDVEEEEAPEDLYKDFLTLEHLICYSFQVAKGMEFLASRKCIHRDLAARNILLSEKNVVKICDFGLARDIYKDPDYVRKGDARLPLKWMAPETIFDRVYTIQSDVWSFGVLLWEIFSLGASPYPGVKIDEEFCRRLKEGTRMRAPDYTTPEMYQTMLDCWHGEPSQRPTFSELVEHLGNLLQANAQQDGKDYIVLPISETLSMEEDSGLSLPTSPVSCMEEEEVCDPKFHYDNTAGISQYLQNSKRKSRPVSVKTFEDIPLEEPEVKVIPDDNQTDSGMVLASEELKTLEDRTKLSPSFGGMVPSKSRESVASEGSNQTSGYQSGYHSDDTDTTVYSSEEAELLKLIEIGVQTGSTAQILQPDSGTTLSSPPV
Chain of FGFR4 V550L (P22455 22-802 V550L): as the sequence (P22455 22-802) above, with V529L counted along it
Chain of FGFR2 N549H (P21802 22-821 N549H): as the sequence (P21802 22-821) above, with N528H counted along it
Chain of FGFR3 K650M (P22607 23-806 K650M): as the sequence (P22607 23-806 V555L) above, with L533V, K628M counted along it
Chain of FGFR3 V555M (P22607 23-806 V555M): as the sequence (P22607 23-806 V555L) above, with L533M counted along it
Chain of FGFR4 N535K (P22455 22-802 N535K): as the sequence (P22455 22-802) above, with N514K counted along it

Row | SMILES | IC50 (FGFR4 V550L) [µM] | IC50 (DYRK2) [µM] | IC50 (FGFR1) [µM] | IC50 (FGFR2) [µM] | IC50 (FGFR3) [µM] | IC50 (FGFR4) [µM] | IC50 (FGFR2 V564I) [µM] | IC50 (FGFR3 K650M) [µM] | IC50 (FGFR3 V555L) [µM] | IC50 (RET V804L) [µM] | IC50 (FGFR4 N535K) [µM] | IC50 (TYRO3) [µM] | IC50 (FGFR1 V561M) [µM] | IC50 (FGFR4 V550M) [µM] | IC50 (FGFR2 V564F) [µM] | IC50 (FGFR3 V555M) [µM] | IC50 (FGFR2 N549H) [µM] | IC50 (FLT1) [µM] | IC50 (FLT4) [µM] | IC50 (KDR) [µM] | further results
1 | Cc1nn2cc1Nc1ncc(C(F)(F)F)c(n1)NCCCNC(=O)C2(C)C [Example T-1, (E)-3^3,4,4-Trimethyl-15-(trifluoromethyl)-3^1H-2,6,10-triaza-1(2,4)-pyrimidina-3(4,1)-pyrazolacyclodecan-5-one] | 0.0674 | 0.248 | 0.135 | 0.0218 | 0.0502 | 0.0329 | 0.0761 | 0.0091 | 0.00509 | 0.175 | 0.609 | 0.278 | 0.0267 | 0.126 | 0.00822 | 0.0127 | 0.0164 | 0.0152 | 0.0651 | 0.0189 | IC50 (FLT3): 0.37 µM; Cmax ([1]; 3 mg/kg, dose 3mpk): 0.755 µg/mL; Tmax ([1]; 3 mg/kg, dose 3mpk): 1 h; half-life ([1]; 3 mg/kg, dose 3mpk): 2.3 h; AUC(0-t) at 8 h ([1]; 3 mg/kg, dose 3mpk): 3.82 µg·h/mL
2 | Cc1nn2cc1Nc1ncc3c(Cl)cc(n3n1)CCCNC(=O)C2(C)C [Example T-25, (1^1Z,3^4E)-1^5-Chloro-3^3,4,4-trimethyl-3^1H-2,6-diaza-1(2,7)-pyrrolo[2,1-f][1,2,4]triazine-3(4,1)-pyrazolacyclononan-5-one] | 0.208 | 0.0277 | 0.18 | 0.0319 | 0.0675 | 0.0583 | 0.0602 | 0.0141 | 0.00881 | 0.0439 | 0.621 | 0.0561 | 0.0138 | 0.105 | 0.00173 | 0.00507 | 0.0175 | 0.00883 | 0.0192 | 0.00767 | IC50 (PDGFRα): 0.067 µM; IC50 (FLT3): 0.0881 µM; Cmax ([1]; 5 mg/kg, dose 5mpk): 0.63 µg/mL; Tmax ([1]; 5 mg/kg, dose 5mpk): 1 h; half-life ([1]; 5 mg/kg, dose 5mpk): 1.73 h; AUC(0-t) at 8 h ([1]; 5 mg/kg, dose 5mpk): 2.21 µg·h/mL
